Experimental data from patent US9969686B2, “Synthesis of diindolylmethanes and indolo[3,2-b]carbazoles, compounds formed thereby, and pharmaceutical compositions containing them” (Wisconsin Alumni Research Foundation, priority 2014, dated 2018).
Where two headings read alike, the source gives them in different places.

Experiments:
[1] = system: secreted PCSK9 in HepG2 cells; test: PCSK9 inhibition assay (AlphaLISA, secreted PCSK9); type: cell-based; conditions: Homo sapiens, Table 5
Source text: PCSK9 expression is actively regulated at transcription levels. Statins are known to stimulate PCSK9 transcription which in turn curbs the efficacy of statins in LDL lowering in humans. […] The PCSK9 SI phenotypic assay is designed to identify compounds that inhibit synthesis of PCSK9 in human hepatoma cell lines (HepG2). See, for example, Horton, J. D., Cohen, J. C., and Hobbs, H. H., “PCSK9: a convertase that coordinates LDL catabolism,” J. Lipid Res. 50 Suppl, S172-177, (2009); Crunkhorn, S. “Trial watch: PCSK9 antibody reduces LDL cholesterol,” Nat Rev Drug Discov 11, 11, (2012); Vogel, R. A., “PCSK9 inhibition: the next statin,” J Am Coll Cardiol 59, 2354-2355, (2012); Li, H., Dong, B., Park, S. W., Lee, H. S., Chen, W., and Liu, J., “Hepatocyte nuclear factor 1alpha plays a critical role in PCSK9 gene transcription and regulation by the natural hypocholesterolemic compound berberine,” J Biol Chem 284, 28885-28895, (2009); and Cao, A., Wu, M., Li, H., and Liu, J., “Janus Kinase activation by cytokine oncostatin M decreases PCSK9 expression in liver cells,” J Lipid Res 52, 518-530, (2011).
Inhibition of secreted PCSK9 was measured in human hepatocellular carcinoma (HepG2) cells using an “AlphaLISA”®-brand assay. Given that this assay is run in an inhibition mode, the viability of cells was also assessed to rule out compounds whose PCSK9 inhibition resulted from deleterious effects on cell health. Freshly cultured HepG2 cells were harvested from poly-d-lysine-coated T225 cell culture flasks and plated in biocoat poly-d-lysine coated 384 black with clear bottom microtiter plates (BD BioCoat #356663; Becton, Dickinson and Company, Franklin Lakes, N.J., USA) at 20,000 cells/well in 60 ul of growth media (MEM+10% heat inactivated FBS+1% NEAA+1% sodium pyruvate+1% GlutaMAX). Cell plates were incubated overnight at 37° C. and 5% CO2 prior to compound treatment.
Compounds were serially diluted 3-fold in 100% DMSO to achieve a starting final assay plate concentration of 50 uM following a 20-fold dilution in assay media (MEM+5% heat inactivated FBS+1% NEAA+1% sodium pyruvate+1% GlutaMAX) and a 10-fold dilution into the cell plates. While the compounds were diluting, the cell plates were washed twice with 75 ul of assay media and refilled with 45 ul of assay media. The cell plates were incubated for 48 hrs at 37° C. and 5% CO2 prior to running the “AlphaLISA”®-brand assay. The “AlphaLISA”® bead mix was assembled in water and left to incubate 1 hr in the dark prior to use (1× “AlphaLISA”® buffer, 5 mg/ml mAb-PCSK9-A4 conjugated acceptor beads, 3.4 uM bioti-mAb-anti-PCSK9-B9, 5 mg/ml streptavidin-coated donor beads). […] In the dark, 5 ul of the bead mix was added to the ProxiPlates, and then the plates were left to incubate at ambient temperature in the dark overnight before being read on an Envision (excitation 680 nm and emission 615 nm). […] The plates were removed from the incubator, sealed with black tape, and read for propidium iodide stained nuclei using an Acumen-brand cell imaging system (TTP Labtech Ltd., Melbourn, Hertfordshire United Kingdom). Percent inhibitions at all concentrations tested were calculated relative to 0.5% DMSO (min effect), and the effect of 50 uM of a fully efficacious PCSK9 inhibitor for the PCSK9 inhibition assay (max effect), or 50 uM Brefeldin A for the viability assay (max effect). IC50 values were calculated using a 4 parameter logistic curve fitting equation.

[2] = system: GLP-1 secretion; test: GLP-1 secretion assay (Table 5; cell line not stated); type: cell-based
Protocol: The GLP-1 secretion assay identifies compounds that stimulate secretion of glucagonlikepeptide one (GLP-1) in mouse and human cell lines derived from gastrointestinal tract tissue. GLP-1 secretion is measured using an ELISA designed to detect the appropriate forms of GLP-1 secreted from these cells. If active in the cell-based GLP-1 assay, molecules can be further tested for selectivity in assays that measure activation of G-protein-coupled receptors (GPCRs) known to stimulate GLP-1 secretion. See, for example, “Glucagon-Like Peptide 1-Based Therapies for Type 2 Diabetes: A Focus on Exenatide,” Kathleen Dungan and John B. Buse; Clinical Diabetes 29 (1), (Winter 2011); and “Glucagon-Like Peptide 1 Secretion by the L-Cell,” Gareth E. Kim and Patricia L. Brubaker; Diabetes: 55 (supplement 2), (December, 2006).
The GLP-1 secretion, diabetes phenotypic testing identifies compounds that stimulate secretion of glucagon-like peptide one (GLP-1) in mouse and human cell lines derived from gastrointestinal tract tissue. GLP-1 secretion is measured using an Eli Lilly & Company (Indianapolis, Ind., USA) proprietary ELISA assay that was specifically designed to detect the appropriate forms of GLP-1 secreted from these cells. (Eli Lilly operates a program known Open Innovation Drug Discovery that performs such testing. See https://openinnovation.lilly.com/dd/.) If active in the cell-based GLP-1 assay, molecules are further tested for selectivity in assays that measure activation of GPCRs known to stimulate GLP-1 secretion. See Glucagon-Like Peptide 1-Based Therapies for Type 2 Diabetes: A Focus on Exenatide; Kathleen Dungan and John B. Buse; Clinical Diabetes: 29 (1), (Winter 2011); and Glucagon-Like Peptide 1 Secretion by the L-Cell; Gareth E. Kim and Patricia L. Brubaker; Diabetes: 55 (supplement 2), (December, 2006).

[3] = target: AhR (Homo sapiens (Human), UniProt P35869); test: ethoxyresorufin-O-deethylase (EROD) assay, AhR activation (CYP1A1 induction); type: cell-based; conditions: for increase of signal over DMSO treatment: at 10 nM concentration, data not shown
Chain of AhR (P35869 11-848): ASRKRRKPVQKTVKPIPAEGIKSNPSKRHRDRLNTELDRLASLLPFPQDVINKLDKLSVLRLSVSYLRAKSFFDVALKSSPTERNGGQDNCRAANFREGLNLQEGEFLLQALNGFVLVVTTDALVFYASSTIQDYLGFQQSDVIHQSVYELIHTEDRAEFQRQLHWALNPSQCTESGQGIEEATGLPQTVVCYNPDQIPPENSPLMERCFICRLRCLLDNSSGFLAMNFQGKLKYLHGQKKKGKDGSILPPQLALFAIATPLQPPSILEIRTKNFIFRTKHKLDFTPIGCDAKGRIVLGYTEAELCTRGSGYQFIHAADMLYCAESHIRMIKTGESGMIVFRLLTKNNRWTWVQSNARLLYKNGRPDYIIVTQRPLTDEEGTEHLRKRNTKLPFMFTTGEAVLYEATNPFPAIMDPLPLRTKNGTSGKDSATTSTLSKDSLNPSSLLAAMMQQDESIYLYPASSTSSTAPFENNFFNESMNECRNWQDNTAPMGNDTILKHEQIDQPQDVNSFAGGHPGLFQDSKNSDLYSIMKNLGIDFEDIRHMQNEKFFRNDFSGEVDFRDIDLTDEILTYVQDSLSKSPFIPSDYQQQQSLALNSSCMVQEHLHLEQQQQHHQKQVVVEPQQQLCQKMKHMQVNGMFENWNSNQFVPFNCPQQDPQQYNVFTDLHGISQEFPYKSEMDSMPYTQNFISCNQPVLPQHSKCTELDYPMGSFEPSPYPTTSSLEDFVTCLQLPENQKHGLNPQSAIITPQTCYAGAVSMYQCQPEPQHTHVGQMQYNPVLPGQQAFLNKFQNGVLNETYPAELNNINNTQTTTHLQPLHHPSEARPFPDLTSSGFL
Protocol: The human Hep G2 cell line from the Small Molecule Screening and Synthesis Facility (UWCCC, Madison, Wis.) and was maintained in DMEM medium supplemented with 10% FBS. Cells were incubated at 37° C. in a humidified atmosphere supplemented with 5% CO2.
Preparation of cells: Cells were cleaved from T75 flasks with 0.05% trypsin. The cells were then collected by spinning at 1 g for 4 min. Excess media containing trypsin was removed from the pellet, which was then re-suspended in growth media. The cells were then counted using a hemocytometer. Cells were plated in sterile 96-well clear bottom black culture plates at a density of 20,000 cells per well in 0.1 mL of media. The cells were then incubated for 24 h at 37° C. in a humidified atmosphere supplemented with 5% CO2.
The ethoxyresorufin-O-deethylase (EROD) assay was performed on cell cultures of human Hep G2 cells. Briefly, 24 h after plating, cells in 96-well plates were treated with AhR agonists and allowed to incubate for 24 h. Each well was then rinsed with 200 uL of PBS buffer twice. To each well was then added 100 uL of 150 nM solution of 7-ethoxyresurufin and allowed to incubate for 2 h. Fluorescence measurements were obtained with a Safire II micro plate reader with excitation at 520 nm with a 25 nm bandwidth and emission at 595 nm with a 20 nm bandwidth.
The bioactivity of malassezin analogs was then investigated. The well-documented ethoxyresorufin-O-deethylase (EROD) assay was used to determine the EC50 values of the compounds towards AhR activation in HepG2 cells. Donato, M. T.; Gomezlechon, M. J.; Castell, J. V. Anal. Biochem. 1993, 213, 29; van Tonder, J. J., University of Pretoria Z. A., Thesis, 2011. This assay measures the induction of cytochrome P450-1A1 (CYP1A1), which is a major outcome of AhR activation. Whyte, J. J.; Jung, R. E.; Schmitt, C. J.; Tillitt, D. E. Crit. Rev. Toxicol. 2000, 30, 347. CYP1A1 selectively converts 7-ethoxyresorufin to the fluorescent product resorufin.

[4] = system: IL5; test: IL5 assay (Table 5); type: cell-based
[5] = system: IL-17 secretion from human peripheral blood mononuclear cells (PBMCs); test: IL-17 phenotypic assay; type: cell-based; conditions: PBMC, Table 5, read-out: IL17, IC50
Source text: The IL-17 phenotypic assay seeks to identify inhibitors of IL-17 secretion from human peripheral blood mononuclear cells (PBMCs) following stimulation of memory T cells by IL-23, anti-CD3, and anti-CD28. Compounds of interest will inhibit IL-17. See W. Ouyang, J. K. Kolls, V. Zheng, “The biological functions of T helper 17 cell effector cytokines in inflammation,” Immunity, 28, 454-467 (2008); I. I. Ivanov, L. Zhou, D. R. Littman, “Transcriptional regulation of Th17 cell differentiation,” Semin Immunol, 19, 409-417 (2007); N. Mane I, D. Unutmaz, D. R. Littman, “The differentiation of human T(H)-17 cells requires transforming growth factor-beta and induction of the nuclear receptor RORgammat,” Nat Immunol, 9, 641-649 (2008); and M. Ciofani, A. Madar, C. Galan, M. Sellars, K. Mace, F. Pauli, A. Agarwal, W. Huang, C. N. Parkurst, M. Muratet, K. M. Newberry, S. Meadows, A. Greenfield, V. Vang, P. Jain, F. K. Kirigin, C. Birchmeier, E. F. Wagner, K. M. Murphy, R. M. Myers, R. Bonneau, D. R. Littman, “A validated regulatory network for Th17 cell specification.” Cell, 151, 289-303 (2012).

[6] = in human; cited from earlier work
[7] = EROD assay, HepG2 cells, 24 h treatment, read-out: EC50 (AhR Activity of Diindolylmethanes)

Row | Structure (SMILES) | EC50 [2] [µM] | EC50 [3, 7] [nM] | also measured
1 | Cc1ccc(S(=O)(=O)n2c(Cc3cn(C)c4ccccc34)c(C(C)C)c3ccccc32)cc1 |  |  | IC50 [1]: 1100 nM
2 | Cc1ccc(S(=O)(=O)n2c(Cc3c[nH]c4cccc(C)c34)c(C)c3ccccc32)cc1 | 2.6 |  | 
3 | c1ccc2[nH]c(Cc3c[nH]c4ccccc34)cc2c1 [6′, 3-((1H-indol-2-yl)methyl)-1H-indole] |  | 215 ± 460 | 
4 | COc1ccc2[nH]cc(Cc3cc4ccccc4[nH]3)c2c1 [Compound 10c] |  | 94 ± 270 | 
5 | O=Cc1c(Cc2c[nH]c3c(Cl)cccc23)[nH]c2ccccc12 [Compound 11b] |  | 320 ± 100 | 
6 | Cc1ccc(S(=O)(=O)n2c(Cc3[nH]c4ccccc4c3CC#N)c(C)c3ccccc32)cc1 |  |  | IC50 [4]: > 30 µM; IC50 [5]: 3.1 µM
7 | Clc1ccc2[nH]cc(Cc3cc4ccccc4[nH]3)c2c1 [Compound 2351377819] | 14.8 |  | IC50 [1]: 10000 nM
8 | Cn1cc(Cc2cc3ccccc3[nH]2)c2ccccc21 [Compound 10d] |  | 86 ± 40 | 
9 | Clc1cc2c(cc1Cl)Oc1cc(Cl)c(Cl)cc1O2 [dioxin, 2,3,7,8-tetrachlorodibenzo-p-dioxin] |  |  | half-life (metabolic stability) [6]: 7-10 years
10 | COc1ccc(Cc2c(C)c3ccccc3n2S(=O)(=O)c2ccc(C)cc2)c(OC)c1 | 2.9 |  | IC50 [1]: 1100 nM
11 | Clc1cccc2c(Cc3cc4ccccc4[nH]3)c[nH]c12 [Compound 2351377820] | 7.2 |  | IC50 [1]: 2800 nM
12 | Cc1ccc(S(=O)(=O)n2c(COC(C)C)c(C)c3ccccc32)cc1 | 7.3 |  | 
13 | Cn1cc(Cc2[nH]c3ccccc3c2C=O)c2ccccc21 [Compound 11d] |  | 55 ± 30 | EC50 value relative to that of malassezin ([3]; EROD assay, HepG2 cells): about five; increase of signal over DMSO treatment [3]: 6 fold
14 | Cn1cc(Cc2cc3ccccc3[nH]2)c2ccccc21 [Compound 2351377824] |  |  | IC50 [1]: 17900 nM; EC50 ([3]; Table 5, read-out: AhR, EC50): 90 nM
15 | Brc1ccc2[nH]cc(Cc3cc4ccccc4[nH]3)c2c1 [Compound 2351377823] | 6.8 |  | 
16 | COc1ccc2[nH]cc(Cc3[nH]c4ccccc4c3C=O)c2c1 [Compound 11c] |  | 230 ± 100 | 
17 | O=Cc1c(Cc2c[nH]c3ccc(Cl)cc23)[nH]c2ccccc12 [Compound 11a] |  | 93 ± 150 | increase of signal over DMSO treatment [3]: 5 fold
18 | O=Cc1c(Cc2c[nH]c3ccccc23)[nH]c2ccccc12 [Compound 6, 2-((1H-indol-3-yl)methyl)-1H-indole-3-carbaldehyde, reference compound] |  | 270 ± 100 | 
